Test results as given in US9963457B2, “Crystal of 5-((2-(6-amino)-9H-purin-9-yl)ethyl)amino)pentan-1-o1” (FOREVER CHEER INTERNATIONAL LIMITED, priority 2016, dated 2018).

Columns and labels:
[1] = test system: mice after neuropathic pain; assay: Bright/dark box test, neuropathic pain; assay type: in vivo; conditions: 3 mg/kg IP, 3 mg/kg
[2] = test system: mice after neuropathic pain; assay: Elevated plus maze test (EPM), neuropathic pain; assay type: in vivo; conditions: 3 mg/kg IP, 3 mg/kg
Procedure: (§1) An anxious animal model of the prior art—the elevated plus maze test (EPM) was adopted. The mice were acclimated for 30 minutes in the room prior to the behavior observation. The EPM was composed of two open arms (250 lux) and two closed arms (350 lux) arranged opposite to each other. For each test, an individual animal was placed at the center of the test position and allowed to move freely. The test is carried out for 5 minutes. The number of entering the test position for each arm and the time spent therefore were recorded.
The other two sets of tests were conducted to test the effect of the crystal of the present invention on inhibiting anxiety caused by chronic pain and neuropathic pain.
(§2) The EPM test tested the anxiety behavior of mice after the test treatment. The physiological saline, non-crystalline NB001 (3 mg/kg), the crystal of the present invention (3 mg/kg), and Gabapentin (30 mg/kg) as a positive control were intraperitoneally injected (IP) into the mice treated with yeast polysaccharide respectively. The behaviors of Mice were observed 28 days after the yeast polysaccharide treatment.

[3] = Stability test of the crystal form (stress, long-term and accelerated test); assay type: physicochemical
Procedure: Stress test, long-term stable test and accelerated stability test of the compound with the crystal form:
The stability of the compound with such a crystal form was investigated under conditions of a high temperature (60° C.), high humidity (92.5% RH), strong light irradiation (5 Klx), 40° C./75% RH (for accelerated test) and 25° C./60% RH (for long term test), in accordance with “Guidelines for Stability Testing of bulk pharmaceutical chemicals and formulation” (Chinese Pharmacopoeia 2015 Edition, four main sections of general requirements 9001).
10 mg of the crystalline sample involved in the Examples of the present invention was accurately weighed and placed on the bottom of a glass sample vial, and then spread out to form a thin layer. The samples for test under high temperature and high humidity conditions and for the long-term test were contained in vials sealed with aluminum-foil paper, and some small holes were made on the aluminum-foil paper to ensure that the sample can be fully in contact with ambient conditions; The samples for test under strong light irradiation and for the accelerated test were contained in vials sealed with screw bottle caps. The samples placed under different conditions were taken and analyzed on day 5, 10, and 30, and the analysis results were compared with the initial test results on day 0.

[4] = test system: mice treated with yeast polysaccharide; assay: Elevated plus maze test (EPM), visceral pain; assay type: in vivo; conditions: 3 mg/kg IP
Procedure: (§3) The visceral pain is induced by injecting yeast polysaccharide into the mice colony, and the yeast polysaccharide is derived from Saccharomyces cerevisiae (Sigma), wherein one kind of dextran is resident on the cell wall of the yeast and is identified as a protein-carbohydrate complex. Specifically, the mice were anesthetized after inhaling 1-3% isoflurane, and then a […] suspension of yeast polysaccharide (formulated as a 30 mg/ml solution in physiological saline) was injected into the colon of the mice by using a 24 mm long plastic feed needle within 2 minutes. The control group was injected with 0.1 ml physiological saline. The yeast polysaccharide or physiological saline was injected daily for 3 days. A visceral pain behavior test was carried out according to the Laird procedure. The number of times the mice licking the abdomen within 10 minutes was recorded, excluding other grooming behaviors, stretching of whole body, pressing the abdomen against the floor, and an 1-2-second arched posture. On day 1, 7 and 14 after the injection into the colon, an open field test was carried out from 9 am to 12 pm, and the entire test was a double-blind test. Prior to the behavioral test, the mice were acclimated for 30 minutes in an observation room. The mice were placed at the middle of a new open zone (43.2×43.2×30.5 cm^3) with micro light (<50 lux) and a fan. The movement distance, vertical count, movement count, stereotypic behavior count, and jumping count of animals were recorded within 30 minutes by means of an activity monitoring system equipped with multiple pairs of packaged light beam sets.
as §1, §2

[5] = test system: mice treated with yeast polysaccharide; assay: Visceral pain behavior test in chronic visceral pain model; assay type: in vivo; conditions: 3 mg/kg IP
Procedure: Chronic Visceral Pain Model
as §3
as §2, with “The” for “The EPM test tested the anxiety behavior of mice after the test treatment. The”

[6] = Accelerated test (40° C./75% RH), Day 30
[7] = Long-term test (25° C./60% RH), Day 30
[8] = Stress test, high humidity (92.5% RH), Day 5
[9] = Stress test, high humidity (92.5% RH), Day 10
[10] = Stress test, high humidity (92.5% RH), Day 30
[11] = Stress test, high temperature (60° C.), Day 5
[12] = Stress test, high temperature (60° C.), Day 10
[13] = Stress test, high temperature (60° C.), Day 30
[14] = Stress test, strong light irradiation (5 Klx), Day 10

Characteristics [3, 6]: off-white powder
Content (%) [3, 6]: 99.51%
Total Impurities (%) [3, 6]: 0.49%
Characteristics ([3]; Day 0): off-white powder
Content (%) ([3]; Day 0): 99.39%
Total Impurities (%) ([3]; Day 0): 0.61%
Characteristics [3, 7]: off-white powder
Content (%) [3, 7]: off-
Total Impurities (%) [3, 7]: 0.60%
Characteristics [3, 8]: off-white powder
Content (%) [3, 8]: 99.51%
Total Impurities (%) [3, 8]: 0.49%
Characteristics [3, 9]: off-white powder
Content (%) [3, 9]: 99.41%
Total Impurities (%) [3, 9]: 0.59%
Characteristics [3, 10]: off-white powder
Content (%) [3, 10]: 99.53%
Total Impurities (%) [3, 10]: 0.47%
Characteristics [3, 11]: off-white powder
Content (%) [3, 11]: 99.47%
Total Impurities (%) [3, 11]: 0.53%
Characteristics [3, 12]: off-white powder
Content (%) [3, 12]: 99.52%
Total Impurities (%) [3, 12]: 0.48%
Characteristics [3, 13]: off-white powder
Content (%) [3, 13]: 99.43%
Total Impurities (%) [3, 13]: 0.57%
Characteristics [3, 14]: off-white powder
Content (%) [3, 14]: 99.48%
Total Impurities (%) [3, 14]: 0.52%
stability under various test conditions ([3]; all test conditions of Table 5): good
Structure (SMILES): Nc1ncnc2c1ncn2CCNCCCCCO [New NB001, 5-(((2-(6-amino)-9H-purin-9-yl)ethyl)amino)pentan-1-ol]
% time in the open arm [1]: 18.5 ± 1.4 (8) %
% time in the open arm [2]: 18.5 ± 1.4 (8) %
therapeutic effect in EPM test as compared with the positive control group ([4]; Table 7, listed as the crystal of the present invention): extremely significant
% time in the open arm ([4]; Visceral pain, 3 mg/kg): 10.3 ± 1.2 (8) %
Number of visceral pain scores ([5]; 28 days after yeast polysaccharide treatment): 11.0 ± 0.7
therapeutic effect on chronic pain as compared with the positive control group ([5]; Table 6, listed as the crystal of the present invention): extremely significant
